Paper PMC9820763, “The Functional Characterization of Carboxylesterases Involved in the Degradation of Volatile Esters Produced in Strawberry Fruits” (International Journal of Molecular Sciences, 2022)

Experiments:
[1] = system: T1, rFaCXE3 (FaCXE3); test: GC-MS of alcohol product, double-reciprocal plot; format: biochemical, Fragaria x ananassa; conditions: Tris-HCl 100 mM, pH 7.5, 30 °C
T1 construct: fusion protein about 35-40 kDa; cloned from strawberry green fruit cDNA
From the text: GC-MS of alcohol product, double-reciprocal plot on rFaCXE3 (FaCXE3)

[2] = system: T2, rFaCXE2 (FaCXE2); test: GC-MS of alcohol product, double-reciprocal plot; format: biochemical, Fragaria x ananassa; conditions: Tris-HCl 100 mM, pH 7.5, 30 °C
T2 construct: fusion protein about 35-40 kDa; cloned from strawberry green fruit cDNA
From the text: GC-MS of alcohol product, double-reciprocal plot on rFaCXE2 (FaCXE2)

Row | Km [1] [µM] | Km [2] [µM] | Structure (SMILES)
1 | 980 ± 110 | 1040 ± 50 | CCC/C=C/COC(C)=O [E-2-Hexenyl acetate]
2 | 840 ± 70 | 10900 ± 840 | CCCCCCOC(C)=O [Hexyl acetate]
3 | 950 ± 50 | 2500 ± 130 | CC/C=C\CCOC(C)=O [Z-3-Hexenyl acetate]
